In brackets after ≈: the same amount, converted by molar mass. Several values for one entry are separate records, joined by “and”; a condition that tells them apart may be missing. Equal values may be shown once.
Columns and labels:
DfrB = DfrB (Staphylococcus aureus, UniProt P0A017); format: biochemical; conditions: read-out: KM, DHF, NADPH saturation 100 μM
DfrA = DfrA (Staphylococcus aureus, UniProt P13955); assay: biochemical; format: biochemical
DfrG [1] = biological target: T1, DfrG (Staphylococcus aureus, UniProt Q4H3Y3); conditions: read-out: KM, DHF, NADPH saturation 100 μM
DfrK [2] = biological target: T2, DfrK (Staphylococcus aureus, UniProt C7C2U7); conditions: read-out: KM, DHF, NADPH saturation 100 μM
[3] = biological target: human DHFR isoform (HuDHFR) (Homo sapiens, UniProt P00374); conditions: read-out: KM, DHF, NADPH saturation 100 μM
UCH115 (dfrA) = assay: MIC, broth dilution, dfrA clinical isolate; format: cell-based; conditions: Staphylococcus aureus, 18 h, read-out: Minimum Inhibitory Concentrations
UCH121 (dfrG) = assay: MIC, broth dilution, dfrG clinical isolate; format: cell-based, Staphylococcus aureus; conditions: for MIC: Staphylococcus aureus, 18 h, read-out: Minimum Inhibitory Concentrations; for Minimum Inhibitory Concentrations: UCH121 (dfrG), 18 hour, 37°C, isosensitest broth
HH1184 (dfrK) = assay: MIC, broth dilution, dfrK clinical isolate; format: cell-based, Staphylococcus aureus; conditions: for Minimum Inhibitory Concentrations: HH1184 (dfrK), 18 hour, 37°C, isosensitest broth; for MIC: Staphylococcus aureus, 18 h, read-out: Minimum Inhibitory Concentrations
DfrG [4] = biological target: T1, DfrG; assay: biochemical
MCF10A = assay: Mammalian cytotoxicity, Alamar Blue; format: cell-based; conditions: Homo sapiens, MCF-10A, 4 h, read-out: Mammalian Toxicity IC50
HepG2 = assay: Mammalian cytotoxicity, Alamar Blue; format: cell-based; conditions: Homo sapiens, HepG2, 4 h, read-out: Mammalian Toxicity IC50
DfrK [5] = biological target: T2, DfrK; assay: biochemical; conditions: Enzymatic inhibition, Table 4, average of three experiments ±SD

Sequence of DfrA (P13955 whole entry): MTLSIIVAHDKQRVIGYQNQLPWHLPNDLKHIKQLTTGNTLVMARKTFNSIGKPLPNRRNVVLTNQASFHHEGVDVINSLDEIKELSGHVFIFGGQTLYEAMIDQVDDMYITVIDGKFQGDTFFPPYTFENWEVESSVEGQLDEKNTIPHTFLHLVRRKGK
Sequence of DfrB (P0A017 whole entry): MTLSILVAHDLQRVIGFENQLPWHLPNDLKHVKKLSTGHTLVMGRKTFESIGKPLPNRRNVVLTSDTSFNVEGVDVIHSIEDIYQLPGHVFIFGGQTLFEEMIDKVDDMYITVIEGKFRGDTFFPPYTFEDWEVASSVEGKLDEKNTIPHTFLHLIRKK
Sequence of human DHFR isoform (HuDHFR) (P00374 whole entry, canonical isoform): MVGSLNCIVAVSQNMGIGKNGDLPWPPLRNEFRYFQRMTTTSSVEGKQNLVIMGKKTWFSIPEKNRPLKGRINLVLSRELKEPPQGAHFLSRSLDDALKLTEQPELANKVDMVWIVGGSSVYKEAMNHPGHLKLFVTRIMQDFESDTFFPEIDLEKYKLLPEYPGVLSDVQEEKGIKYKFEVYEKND

SMILES	Km (DfrB)	Km (DfrA; read-out: KM, DHF, DfrA, NADPH saturation 100 μM)	Km (DfrG [1])	Km (DfrK [2])	Km [3]	MIC (UCH115 (dfrA))	MIC (UCH121 (dfrG))	Minimum Inhibitory Concentrations (UCH121 (dfrG))	Minimum Inhibitory Concentrations (HH1184 (dfrK))	MIC (HH1184 (dfrK))	Ki (DfrA)	Ki (DfrG [4])	IC50 (MCF10A)	IC50 (HepG2)	Ki (DfrK [5])
Nc1nc(=O)c2c([nH]1)NCC(CNc1ccc(C(=O)N[C@@H](CCC(=O)O)C(=O)O)cc1)=N2 [DHF, dihydrofolate]	13.3 µM and 13.4 µM	5.76 µM	8.87 µM and 8.9 µM	11 µM	10.5 µM										
COc1cc(Cc2cnc(N)nc2N)c2c(c1OC)OC(C1CC1)C=C2 (stereo not shown) [Iclaprim, iclaprim]						64 µg/mL (≈ 181 µM)	> 250 µg/mL	>250 µg/mL	>250 µg/mL	> 250 µg/mL	90 ± 3 nM	1350 ± 10 nM			
CN(Cc1cnc2nc(N)nc(N)c2n1)c1ccc(C(=O)N[C@@H](CCC(=O)O)C(=O)O)cc1 [Methotrexate]						> 250 µg/mL	> 250 µg/mL			> 250 µg/mL	0.38 ± 0.04 nM	1.8 ± 0.1 nM	> 200 µg/mL	> 200 µg/mL	2.5 ± 0.1 nM
COc1cc(Cc2cnc(N)nc2N)cc(OC)c1OC [Trimethoprim, trimethoprim]						250 µg/mL (≈ 861 µM)	> 1000 µg/mL	>1000 µg/mL	>1000 µg/mL	> 1000 µg/mL					

Source: article PMC7025792 (ACS infectious diseases, 2019)
